Laboratory results as given in patent US8741897B2, “Glucocorticoid mimetics, methods of making them, pharmaceutical compositions and uses thereof” (Boehringer Ingelheim Pharmaceuticals Inc., priority 2003, dated 2014).

Tested on: glucocorticoid receptor function
Assay: one or more of the above assays (GR binding and glucocorticoid receptor cell assays: aromatase, IL-6, TAT, MMTV-Luc, IL-8, ICAM-Luc)
Type: cell-based
Settings: assay not specified per compound

SMILES | activity as agonists of the glucocorticoid receptor function in one or more of the above assays
CN(C)c1cc2cc(CC(O)(CC(C)(C)c3ccc(F)cc3O)C(F)(F)F)[nH]c2cn1 (stereo not shown) [2-[3-(5-Dimethylamino-1H-pyrrolo[2,3-c]pyridin-2-ylmethyl)-4,4,4-trifluoro-3-hydroxy-1,1-dimethylbutyl]-5-fluorophenol] | potent agonists
CC(C)(CC(O)(Cc1cc2cc(-c3cccnc3)ccc2[nH]1)C(F)(F)F)c1cc(F)cc2c1OCC2 (stereo not shown) [1,1,1-Trifluoro-4-(5-fluoro-2,3-dihydrobenzofuran-7-yl)-4-methyl-2-(5-pyridin-3-yl-1H-indol-2-ylmethyl)pentan-2-ol] | potent agonists
COc1ccc(F)cc1C(C)(C)CC(O)(Cc1cc2ccncc2[nH]1)C(F)F (stereo not shown) [1,1-Difluoro-4-(5-fluoro-2-methoxyphenyl)-4-methyl-2-(1H-pyrrolo[2,3-c]pyridin-2-ylmethyl)pentan-2-ol] | agonists
CC(C)(CC(O)(Cc1cc2cc(Br)ccc2[nH]1)C(F)(F)F)c1cc(Cl)cc2c1OCC2 (stereo not shown) [2-(5-Bromo-1H-indol-2-ylmethyl)-4-(5-chloro-2,3-dihydrobenzofuran-7-yl)-1,1,1-trifluoro-4-methylpentan-2-ol] | potent agonists
Cc1cncc2[nH]c(CC(O)(CC(C)(C)c3ccc(F)cc3O)C(F)(F)F)cc12 (stereo not shown) [5-Fluoro-2-[4,4,4-trifluoro-3-hydroxy-1,1-dimethyl-3-(4-methyl-1H-pyrrolo[2,3-c]pyridin-2-ylmethyl)butyl]phenol] | potent agonists
COc1ccc(-c2cccc(C#N)c2)cc1C(C)(C)CC(O)(Cc1cc2ccncc2[nH]1)C(F)(F)F (stereo not shown) [4′-Methoxy-3′-[4,4,4-trifluoro-3-hydroxy-1,1-dimethyl-3-(1H-pyrrolo[2,3-c]pyridin-2-ylmethyl)butyl]biphenyl-3-carbonitrile] | potent agonists
COc1ccc(-c2ccccc2)cc1C(C)(C)CC(O)(Cc1cc2ccncc2[nH]1)C(F)(F)F (stereo not shown) [1,1,1-Trifluoro-4-(4-methoxybiphenyl-3-yl)-4-methyl-2-(1H-pyrrolo[2,3-c]pyridin-2-ylmethyl)pentan-2-ol] | potent agonists
CC(C)(CC(O)(Cc1cc2nc(-c3ccccc3)ncc2[nH]1)C(F)(F)F)c1cc(F)ccc1O (stereo not shown) [4-Fluoro-2-[4,4,4-trifluoro-3-hydroxy-1,1-dimethyl-3-(2-phenyl-5H-pyrrolo[3,2-d]pyrimidin-6-ylmethyl)butyl]phenol] | potent agonists
CC(C)(CC(O)(Cc1cc2nc(-c3ccccc3)ncc2[nH]1)C(F)(F)F)c1ccccc1 (stereo not shown) [1,1,1-Trifluoro-4-methyl-4-phenyl-2-(2-phenyl-5H-pyrrolo[3,2-d]pyrimidin-6-ylmethyl)pentan-2-ol] | potent agonists
COc1ccc(Br)cc1C(C)(C)CC(O)(Cc1cc2cc(N3CCOCC3)ncc2[nH]1)C(F)(F)F (stereo not shown) [4-(5-Bromo-2-methoxyphenyl)-1,1,1-trifluoro-4-methyl-2-(5-morpholin-4-yl-1H-pyrrolo[2,3-c]pyridin-2-ylmethyl)pentan-2-ol] | potent agonists
CC(C)(CC(O)(Cc1cc2cc(C#N)ncc2[nH]1)C(F)(F)F)c1cc(Cl)cc2c1OCC2 (stereo not shown) [2-[4-(5-Chloro-2,3-dihydrobenzofuran-7-yl)-2-hydroxy-4-methyl-2-trifluoromethylpentyl]-1H-pyrrolo[2,3-c]pyridine-5-carbonitrile] | potent agonists
Cc1ccc(F)cc1C(C)(C)CC(O)(Cc1cc2cnccc2[nH]1)C(C)(C)C (stereo not shown) [5-(5-Fluoro-2-methylphenyl)-2,2,5-trimethyl-3-(1H-pyrrolo[3,2-c]pyridin-2-ylmethyl)hexan-3-ol] | agonists
CC(C)(CC(O)(Cc1cc2cnccc2[nH]1)C(F)(F)F)c1cc(S(C)(=O)=O)cc2c1OCC2 (stereo not shown) [1,1,1-Trifluoro4-(5-methanesulfonyl-2,3-dihydrobenzofuran-7-yl)-4-methyl-2-(1H-pyrrolo[3,2-c]pyridin-2-ylmethyl)pentan-2-ol] | potent agonists
COc1ccc(-c2ccccc2Cl)cc1C(C)(C)CC(O)(Cc1cc2cc(N3CCCCC3)ncc2[nH]1)C(F)(F)F (stereo not shown) [4-(2′-Chloro-4-methoxybiphenyl-3-yl)-1,1,1-trifluoro-4-methyl-2-(5-piperidin-1-yl-1H-pyrrolo[2,3-c]pyridin-2-ylmethyl)pentan-2-ol] | potent agonists
Cc1ccc(F)cc1C(C)(C)CC(O)(Cc1cc2ccncc2[nH]1)C(C)C (stereo not shown) [5-(5-Fluoro-2-methylphenyl)-2,5-dimethyl-3-(1H-pyrrolo[2,3-c]pyridin-2-ylmethyl)hexan-3-ol] | agonists
COc1ccc(-c2ccsc2)cc1C(C)(C)CC(O)(Cc1cc2cc(OC(C)C)ncc2[nH]1)C(F)(F)F (stereo not shown) [1,1,1-Trifluoro-2-(5-isopropoxy-1H-pyrrolo[2,3-c]pyridin-2-ylmethyl)-4-(2-methoxy-5-thiophen-3-ylphenyl)-4-methylpentan-2-ol] | potent agonists

SMILES | activity as agonists of the glucocorticoid receptor function in one or more of the above assays
Cc1ccc(F)cc1C(C)(C)CC(O)(Cc1cc2cc(-c3ccccc3)ncc2[nH]1)C(C)(C)C (stereo not shown) [5-(5-Fluoro-2-methylphenyl)-2,2,5-trimethyl-3-(5-phenyl-1H-pyrrolo[2,3-c]pyridin-2-ylmethyl)hexan-3-ol] | agonists
CC(C)(CC(O)(Cc1cc2cc(-c3ccccc3)nnc2[nH]1)C(F)(F)F)c1ccccc1 (stereo not shown) [1,1,1-Trifluoro-4-methyl-4-phenyl-2-(3-phenyl-7H-pyrrolo[2,3-c]pyridazin-6-ylmethyl)pentan-2-ol] | potent agonists
Cc1ccc(F)cc1C(C)(C)CC(O)(Cc1cc2cc(-c3ccccc3)ncc2[nH]1)C(C)C (stereo not shown) [5-(5-Fluoro-2-methylphenyl)-2,5-dimethyl-3-(5-phenyl-1H-pyrrolo[2,3-c]pyridin-2-ylmethyl)hexan-3-ol] | agonists
CC(C)(CC(O)(Cc1cc2ncncc2[nH]1)C(F)(F)F)c1cc(F)ccc1O (stereo not shown) [4-Fluoro-2-[4,4,4-trifluoro-3-hydroxy-1,1-dimethyl-3-(5H-pyrrolo[3,2-d]pyrimidin-6-ylmethyl)butyl]phenol] | potent agonists
CC(C)C(O)(Cc1cc2cnccc2[nH]1)CC(C)(C)c1cc(Cl)cc2c1OCC2 (stereo not shown) [5-(5-Chloro-2,3-dihydrobenzofuran-7-yl)-2,5-dimethyl-3-(1H-pyrrolo[3,2-c]pyridin-2-ylmethyl)hexan-3-ol] | agonists
CC(C)(CC(O)(Cc1cc2cc(-c3ccc(F)cc3)ncc2[nH]1)C(F)(F)F)c1cccc(F)c1 (stereo not shown) [1,1,1-Trifluoro-4-(3-fluorophenyl)-2-[5-(4-fluorophenyl)-1H-pyrrolo[2,3-c]pyridin-2-ylmethyl]-4-methylpentan-2-ol] | potent agonists
CC(C)(CC(O)(Cc1cc2nnccc2[nH]1)C(F)(F)F)c1cc(F)ccc1O (stereo not shown) [4-Fluoro-2-[4,4,4-trifluoro-3-hydroxy-1,1-dimethyl-3-(5H-pyrrolo[3,2-c]pyridazin-6-ylmethyl)butyl]phenol] | potent agonists
CC(C)(CC(O)(Cc1cc2ccncc2[nH]1)C(F)(F)F)c1cccc(CN2CCOCC2)c1 (stereo not shown) [1,1,1-Trifluoro-4-methyl-4-(3-morpholin-4-ylmethylphenyl)-2-(1H-pyrrolo[2,3-c]pyridin-2-ylmethyl)pentan-2-ol] | potent agonists
CC(C)(CC(O)(Cc1cc2c(C#N)cccc2[nH]1)C(F)(F)F)c1cc(F)ccc1O (stereo not shown) [2-[4-(5-Fluoro-2-hydroxyphenyl)-2-hydroxy-4-methyl-2-trifluoromethylpentyl]-1H-indole-4-carbonitrile] | potent agonists
CN(C)c1ccc(-c2ccc3[nH]c(CC(O)(CC(C)(C)c4cc(F)cc5c4OCC5)C(F)(F)F)cc3c2)cc1 (stereo not shown) [2-[5-(4-Dimethylaminophenyl)-1H-indol-2-ylmethyl]-1,1,1-trifluoro-4-(5-fluoro-2,3-dihydrobenzofuran-7-yl)-4-methylpentan-2-ol] | potent agonists
COc1cc(F)ccc1C(C)(C)CC(O)(Cc1cc2c(C)cncc2[nH]1)C(F)(F)F (stereo not shown) [1,1,1-Trifluoro-4-(4-fluoro-2-methoxyphenyl)-4-methyl-2-(4-methyl-1H-pyrrolo[2,3-c]pyridin-2-ylmethyl)pentan-2-ol] | potent agonists
CC(C)(CC(O)(Cc1cc2cc(N3CCOCC3)ncc2[nH]1)C(F)(F)F)c1ccc(F)cc1 (stereo not shown) [1,1,1-Trifluoro-4-(4-fluorophenyl)-4-methyl-2-(5-morpholin-4-yl-1H-pyrrolo[2,3-c]pyridin-2-ylmethyl)pentan-2-ol] | potent agonists
Cc1ccc(F)cc1C(C)(C)CC(O)(Cn1ccc2c1CCCC2=O)C(F)(F)F (stereo not shown) [1-[4-(5-Fluoro-2-methylphenyl)-2-hydroxy-4-methyl-2-trifluoromethylpentyl]-1,5,6,7-tetrahydroindol-4-one] | agonists
CCOc1cc2cc(CC(O)(CC(C)(C)c3cc(F)ccc3C)C(F)(F)F)[nH]c2cn1 (stereo not shown) [2-(5-Ethoxy-1H-pyrrolo[2,3-c]pyridin-2-ylmethyl)-1,1,1-trifluoro-4-(5-fluoro-2-methylphenyl)-4-methylpentan-2-ol] | potent agonists
CC(C)(CC(O)(Cc1cc2cc(-c3ccccc3)nnc2[nH]1)C(F)(F)F)c1cc(Cl)cc2c1OCC2 (stereo not shown) [4-(5-Chloro-2,3-dihydrobenzofuran-7-yl)-1,1,1-trifluoro-4-methyl-2-(3-phenyl-7H-pyrrolo[2,3-c]pyridazin-6-ylmethyl)pentan-2-ol] | potent agonists
